We go through one compound from patent EP0799174B1, “BIOCIDAL ALCOHOLS, THEIR PRODUCTION AND THEIR USE” (SCHÜLKE & MAYR GMBH, priority 1994, dated 1996).

Some results are limits rather than exact numbers.

Assay type in all cases: cell-based
Assay [1] has as its system Penicillium funiculosum ATCC 36839. The assay is described as follows: MIC values, water-soluble (inhibition titre, dilution series in CSL). Particulars: standard formulation: Rewopal MPG 40 25.0 g, aromatic alcohol 10 mmol, dem. water to 100 g, pH 7.0.
Assay [2] relates to Germ mixture of Staphylococcus aureus, Staphylococcus epidermis, Escherichia coli, Klebsiella pneumoniae, Enterobacter gergoviae, Pseudomonas aeruginosa …. The assay is described as follows: Preservative test: weekly loading of the sample with germ suspension. Conditions: aromatic alcohol 0.5% in sulfosuccinate 12.0% / betaine 3.0% formulation. The source says:
Standard formulation: • sulfosuccinate 12.0% • betaine 3.0% • aromatic alcohol 0.5% • re-fatting agent • skin care additives • thickener • dem. water to 100 Test germs: Germ mixture of Staphylococcus aureus, Staphylococcus epidermis, Escherichia coli, Klebsiella pneumoniae, Enterobacter gergoviae, Pseudomonas aeruginosa, Pseudomonas fluorescens, Pseudomonas putida, Aspergillus niger, Penicillium funiculosum, Candida albicans; Total germ count 10^8-10^9/ml. Test method: weekly loading of the sample with germ suspension; smear onto CS and Sabouraud agar. See also K.-H. Diehl, P. Oltmanns, J. Ramsbotham, Seife, Öle, Fette, Wachse 118 (1992) 546.
Data expressed semi-qualitatively: • - no growth < 10^2 CFU/g (CFU = colony-forming units) • + slight growth approx. 10^3 CFU/g • ++ moderate growth approx. 10^4-10^5 CFU/g • +++ heavy growth > 10^5 CFU/g

For assay [3], the system named is Mycobacterium terrae ATCC 15755. Nature of the assay: Germ carrier experiment with standard cotton. The arrangement: key: E: individual colonies; M: several colonies; +: weak growth; ++: moderate growth; +++: heavy growth; ++++: very heavy growth; ∞: lawn growth. Conditions: Rewopal MPG 40 25.0%, aromatic alcohol 2.0 %, dem. water to 100. As for the experimental part: • Rewopal MPG 40 25.0% • aromatic alcohol 2.0 % • dem. water to 100
The bacteria are elutriated with 5 ml CSL from a 24 h-old (37°C) culture onto CSA plates measuring approx. 9 cm in diameter, the suspension being diluted with CSL if necessary. The number of CFU/ml is to be determined using surface culture. It should be > 10^9/ml.
The sterilized and dried germ carriers are introduced into the bacterial suspension and left in it for 15 minutes, during which they are turned over twice.
A number (4) of contaminated, thoroughly impregnated germ carriers, corresponding to the proposed removal times - 15, 30, 60 and 120 minutes - is placed in a small dish and 10 ml of the disinfectant solution to be tested in WSH are poured over them. Air bubbles are to be removed by repeated turning of the germ carriers.
After the corresponding action times, the germ carriers are to be removed from the disinfectant solution, and after rinsing twice in each case for 1 min in 10 ml ML solution (see Appendix) to which the deactivating substances were optionally added, the germ carriers are placed onto the surface of a Löwenstein-Jensen nutrient medium with tweezers and moved backwards and forwards 3 to 4 times using light pressure. After inoculating the nutrient medium surface the small cloth is to remain lying directly above the condensed water level of the nutrient medium.
Germ carriers pre-treated in the same way, but kept in WSH for 120 minutes instead of in disinfectant solution are to be inoculated as a control. The inoculated tubes are incubated at 37°C for 3 weeks.

In the next assay the test system is Ps. aeruginosa. The assay is described as follows: Quantitative surface test according to DGHM, alcoholic surface disinfectant. Particulars: additive (0.05% for single substances) in ethanol 25.0 % / 1-propanol 35.0 % formulation, germs deposited after approx. 20 minutes. The source says:
Standard formulation: • ethanol (MEK denatured) 25.0 % • 1-propanol 35.0 % • perfume 0.02 % • benzotriazole 0.001 % • Marlipal 013/70 0.1% (isotridecanpolyethyleneglycol-(7)-ether = C13 oxo alcohol + 7 mol ethylene oxide) • active ingredient additive x% • dem. water to 100 Test germ: Ps. aeruginosa Test method:
Quantitative surface test according to DGHM (Deutsche Gesellschaft für Hygiene and Microbiology = German Association for Hygiene and Microbiology). In order to exclude the effectiveness of the readily volatile alcohol components (ethanol, 1-propanol), the preparations were deposited onto the surfaces and the germs were deposited after approx. 20 minutes. Test surfaces: PVC and OP tiles Data as reduction factors (log stages)

Assay [4] deals with Aspergillus niger ATCC 6275. Nature of the assay: MIC values, water-soluble (inhibition titre, dilution series in CSL). Conditions: standard formulation: Rewopal MPG 40 25.0 g, aromatic alcohol 10 mmol, dem. water to 100 g, pH 7.0.
Assay [5] concerns Candida albicans ATCC 10231. The assay is described as above. Conditions: standard formulation: Rewopal MPG 40 25.0 g, aromatic alcohol 10 mmol, dem. water to 100 g, pH 7.0. The protocol:
(§1) Standard formulation: • Rewopal MPG 40 25.0 g • aromatic alcohol 10 mmol • dem.* water to 100 g • lactic acid for adjusting the pH value to 7.0 q.s.
(§2) In sterile test tubes, 5 ml each of the dilutions of the disinfectant in WSH (water of standardized hardness) are mixed with 5 ml double-concentrated casein peptone soybean flour peptone solution (CSL) or CSL and deactivating substances.
(§3) To determine the bacteriostatic action on Staphylococcus aureus and Proteus mirabilis the tubes are inoculated by adding 0.1 ml of a CSL culture diluted 1:10 with CSL and incubated for 24 h at 37°C.
(§4) To test the fungistatic action, 0.1 ml of an undiluted CSL culture of Candida albicans which has been incubated at 37°C for 72 h is used in each case. Evaluation takes place after 72 h at 37°C.
(§5) The highest dilution of the preparation in CSL or CSL and deactivating substances that still suppresses growth of the test germs after […] incubation serves as the measure of the multiplication-inhibiting action (inhibition titre).
(§6) In the case of the disinhibition tests, the culture media are to be adjusted to a pH value of 7.0 ± 0.2 according to the state of the disinfectant.
(§7) Standard formulation: • aromatic alcohol 5.0 % • Brij 58 5.0 % • 1,3-butanediol to 100 • Test germs: see above • Test method: see above

Assay [6] has as its system Staphylococcus aureus ATCC 6538. The description is as above. Conditions: standard formulation: Rewopal MPG 40 25.0 g, aromatic alcohol 10 mmol, dem. water to 100 g, pH 7.0. As for the experimental part: as §1, §2, §3, §4, §5, §6, §7
In assay [7] the test system is Proteus vulgaris NCTC 4635. The assay is described as above. Conditions: standard formulation: Rewopal MPG 40 25.0 g, aromatic alcohol 10 mmol, dem. water to 100 g, pH 7.0.

On to `CC(C)(CO)Cc1ccccc1` [Alcohol 2, 2,2-dimethyl-3-phenyl-1-propanol], for which the “MIC (minimum inhibiting concentration) P. funi.” value in assay [1] stood at 313 μmol/100 ml test solution. Further, the “growth, 1st week” value in assay [2] (1st week) is recorded as “- (no growth < 10^2 CFU/g)”. Besides, the “growth, 2nd week” value in assay [2] (2nd week) is “- (no growth < 10^2 CFU/g)”. Besides, the “growth, 3rd week” value in assay [2] (3rd week) is “- (no growth < 10^2 CFU/g)”. In assay [2] (4th week), the “growth, 4th week” value is given as “- (no growth < 10^2 CFU/g)”. For the same compound, in assay [2] (5th week), the “growth, 5th week” value is “- (no growth < 10^2 CFU/g)”. Also, the “growth of M. terrae after action time 15'” value in assay [3] (15') is recorded as “+++”. For the same compound, the “growth of M. terrae after action time 30'” value in assay [3] (30') is on record as “++”. In assay [3] (60'), the “growth of M. terrae after action time 60'” value was “+”. Besides, the “growth of M. terrae after action time 120'” value in assay [3] (120') was “M”. The “reduction factors (log stages)” value in the assay with Ps. aeruginosa (PVC, 30') was greater than 6.0 log stages; in the assay with Ps. aeruginosa (PVC, 60'), greater than 5.4 log stages; in the assay with Ps. aeruginosa (PVC, 240'), greater than 6.5 log stages; in the assay on Ps. aeruginosa (Tiles, 30') it was 4.1 log stages; in the assay with Ps. aeruginosa (Tiles, 60') it was 4.9 log stages; in the assay on Ps. aeruginosa (Tiles, 240'), greater than 5.8 log stages. Also, the “MIC (minimum inhibiting concentration) A. niger” value in assay [4] is listed as 313 μmol/100 ml test solution. Moreover, the “MIC (minimum inhibiting concentration) C. albicans” value in assay [5] was determined as 313 μmol/100 ml test solution. Also, the “MIC (minimum inhibiting concentration) S. aureus” value in assay [6] turned out to be 313 μmol/100 ml test solution. Moreover, the “MIC (minimum inhibiting concentration) P. vulgaris” value in assay [7] worked out at 313 μmol/100 ml test solution.
